Values of other authors in patent publication US11701318B2, “Process of dyeing keratinous material comprising the use of an organosilicon compound, an effect pigment, and a film-forming polymer I” (Henkel AG & Co. KGaA, priority 2019, dated 2023).

Details: 25° C.

Compound | solubility in water | solubility in water (in words)
O=S(=O)([O-])c1ccc(N=Nc2c(O)ccc3ccccc23)cc1.[Na+] [Acid Orange 7, sodium salt of 4-[(2-hydroxy-1-naphthyl)azo]benzene sulphonate] | more than 7 g/L | 
O=C([O-])C1=NN(c2ccc(S(=O)(=O)[O-])cc2)C(=O)C1N=Nc1ccc(S(=O)(=O)[O-])cc1.[Na+].[Na+].[Na+] (stereo not drawn) [Acid Yellow 23, trisodium salt of 4,5-dihydro-5-oxo-1-(4-sulfophenyl)-4-((4-sulfophenyl)azo)-1H-pyrazole-3-carboxylic acid] |  | highly soluble in water
Nc1cc(S(=O)(=O)[O-])cc2cc(S(=O)(=O)[O-])c(N=Nc3ccccc3)c(O)c12.[Na+].[Na+] [Acid Red 33, disodium salt of 5-amino-4-hydroxy-3-(phenylazo)-naphthalene-2,7-disulphonate] | 2.5 mg/mL | 
CCN(Cc1cccc(S(=O)(=O)[O-])c1)c1ccc(C(=C2C=CC(=[N+](CC)Cc3cccc(S(=O)(=O)[O-])c3)C=C2)c2ccccc2S(=O)(=O)[O-])cc1.[Na+].[Na+] [Acid Blue 9] | more than 20 % by weight | 
mixture of the sodium salts of mono- and disulfonic acids of 2-(2-quinolyl)-1H-indene-1,3(2H)-dione [Acid Yellow 3] | 20 mg/mL | 
O=C([O-])c1c(Cl)c(Cl)c(Cl)c(Cl)c1-c1c2c(Br)cc(=O)c(Br)c-2oc2c(Br)c(O)cc(Br)c12.O=C([O-])c1c(Cl)c(Cl)c(Cl)c(Cl)c1-c1c2c(Br)cc(=O)c(Br)c-2oc2c(Br)c(O)cc(Br)c12.[Na+].[Na+] [Acid Red 92, disodium salt of 3,4,5,6-tetrachloro-2-(1,4,5,8-tetrabromo-6-hydroxy-3-oxoxanthen-9-yl)benzoic acid] | greater than 10 g/L | 
